Consider 25 compounds from patent US11161855B2, “Tricyclic fused thiophene derivatives as JAK inhibitors” (Incyte Corporation, priority 2012, dated 2021).

One may read the IC50 as the concentration that gives 50% inhibition.

What all share (type): biochemical
The target in assay [1] is human JAK1 (a.a. 837-1142) (Homo sapiens, UniProt P23458). Description: In vitro JAK kinase assay (HTRF), JAK1. The conditions noted are these: 1 mM ATP. The method in brief: (§1)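 Baculovirus-expressed catalytic domains (JAK1 a.a. 837-1142, JAK2 a.a. 828-1132) phosphorylate 500 nM biotinylated peptide at 1 mM ATP, Tris pH 7.8, 1 h at room temperature. EDTA stop and HTRF detection with Eu-Py20/SA-APC; IC50 values derived.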
Background: TR-FRET usually uses a lanthanide donor and a delayed reading to cut background.

For assay [2], the system named is human JAK1 (a.a. 837-1142). Description: In vitro JAK kinase assay (HTRF), JAK1. The conditions noted are these: ratio of IC50s, 1 mM ATP. The essentials:
as §1

The target in assay [3] is human JAK2 (a.a. 828-1132) (Homo sapiens (Human), UniProt O60674). Description: In vitro JAK kinase assay (HTRF), JAK2. Further details: key to JAK2 IC50 (nM): + indicates an IC50 of ≤100 nM; ++ indicates an IC50 of ≤1000 nM; +++ indicates an IC50 of ≤2000 nM; ++++ indicates an IC50 of >2000 nM; +++++ indicates that the IC50 was greater than the highest concentration tested. The conditions noted are these: 1 mM ATP. As for the experimental part: Compounds herein were tested for inhibitory activity of JAK targets according to the following in vitro assay described in Park et al., Analytical Biochemistry 1999, 269, 94-104. The catalytic domains of human JAK1 (a.a. 837-1142), JAK2 (a.a. 828-1132) and JAK3 (a.a. 781-1124) were expressed using baculovirus in insect cells and purified. The catalytic activity of JAK1, JAK2 or JAK3 was assayed by measuring the phosphorylation of a biotinylated peptide. The phosphorylated peptide was detected by homogenous time resolved fluorescence (HTRF). IC50s of compounds were measured for each kinase in the 40 μL reactions that contain the enzyme, ATP and 500 nM peptide in 50 mM Tris (pH 7.8) buffer with 100 mM NaCl, 5 mM DTT, and 0.1 mg/mL (0.01%) BSA. For the 1 mM IC50 measurements, ATP concentration in the reactions was 1 mM. Reactions were carried out at room temperature for 1 hour and then stopped with 20 μL 45 mM EDTA, 300 nM SA-APC, 6 nM Eu-Py20 in assay buffer (Perkin Elmer, Boston, Mass.). Binding to the Europium labeled antibody took place for 40 minutes and HTRF signal was measured on a PHERA star plate reader (BMG, Cary, N.C.). The Example compounds were each tested in the Example A assay (see Table 1 for data for the compounds of the examples as tested by the assay of Example A at 1 mM ATP).
Chain of human JAK2 (a.a. 828-1132) (O60674 828-1132): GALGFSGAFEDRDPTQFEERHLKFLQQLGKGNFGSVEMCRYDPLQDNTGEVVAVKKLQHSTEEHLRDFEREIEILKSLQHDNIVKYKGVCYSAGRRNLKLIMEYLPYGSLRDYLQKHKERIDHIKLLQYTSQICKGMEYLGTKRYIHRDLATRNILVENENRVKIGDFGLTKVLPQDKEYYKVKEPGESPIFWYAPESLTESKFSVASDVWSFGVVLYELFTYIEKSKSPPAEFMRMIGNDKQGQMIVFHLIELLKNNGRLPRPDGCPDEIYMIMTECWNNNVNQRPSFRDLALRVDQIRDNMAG

As for `C[C@@H](O)c1nc2cnc3ccsc3c2n1[C@@H]1CC[C@@H](CC#N)[C@H](O)C1` (single isomer, unassigned) [37 (second peak)], the results for the IC50 in assay [1] and in assay [3] were not above 0.1 µM and not above 1 µM, respectively. The JAK2/JAK1 in assay [2] was more than 10.

Consider `C[C@@H](O)c1nc2cnc3ccsc3c2n1[C@@H]1CC[C@@H](CC#N)[C@@H](O)C1` (single isomer, unassigned) [36 (second peak)], for which the values for the IC50 in assay [1] and in assay [3] were not above 0.1 µM and not above 1 µM, respectively. Also, the JAK2/JAK1 in assay [2] is more than 10.

The compound `C[C@@H](O)c1nc2cnc3ccsc3c2n1[C@H]1CC[C@H](CC#N)[C@@H](O)C1` (single isomer, unassigned) [37 (first peak)] came in with an IC50 in assay [1] not above 1 µM. The JAK2/JAK1 in assay [2] is given as more than 10. Also, the “JAK2 IC50 (nM)” value in assay [3] is given as “+++++”.

With `CCc1nc2cnc3ccsc3c2n1[C@@H]1CC[C@@H](CC#N)[C@H](O)C1` (single isomer, unassigned) [40 (second peak)], the 50% inhibitory concentration (IC50) in assay [1] is more than 2 µM. Also, in assay [3], the “JAK2 IC50 (nM)” value is “+++++”.

As to `CCc1nc2cnc3ccsc3c2n1[C@H]1CC[C@H](CC#N)[C@@H](O)C1` (single isomer, unassigned) [40 (first peak)], the IC50 in assay [1] is not above 0.1 µM; in assay [3] it was not above 1 µM. The JAK2/JAK1 in assay [2] is on record as more than 10.

`Cc1nc2cnc3ccsc3c2n1[C@@H]1CC[C@@H](CC#N)[C@H](O)C1` (single isomer, unassigned) [41 (second peak)] returned an IC50 in assay [1] of more than 2 µM. Also, the “JAK2 IC50 (nM)” value in assay [3] is recorded as “+++++”.

Take `C[C@@H](O)c1nc2cnc3ccsc3c2n1[C@H]1CCCN(C(=O)CCC(F)(F)F)C1` [Example 52, (1R)-1-{1-[(3S)-1-(4,4,4-Trifluorobutanoyl)piperidin-3-yl]-1H-imidazo[4,5-d]thieno[3,2-b]pyridin-2-yl}ethanol]: the JAK2/JAK1 in assay [2] was more than 10. Moreover, the “JAK2 IC50 (nM)” value in assay [3] is on record as “+++++”.

For the compound `N#CCc1nc2cnc3ccsc3c2n1[C@H]1CC[C@H](CC#N)CC1` [Example 90, {1-[trans-4-(Cyanomethyl)cyclohexyl]-1H-imidazo[4,5-d]thieno[3,2-b]pyridin-2-yl}acetonitrile], in assay [2], the JAK2/JAK1 is more than 10.

Take `C[C@@H](O)c1nc2cnc3ccsc3c2n1[C@H]1CC[C@@H](n2cncn2)CC1` [Example 6, (1R)-1-{1-[cis-4-(1H-1,2,4-Triazol-1-yl)cyclohexyl]-1H-imidazo[4,5-d]thieno[3,2-b]pyridin-2-yl}ethanol]: the JAK2/JAK1 in assay [2] is more than 6.

For the compound `C[C@@H](O)c1cc2cnc3ccsc3c2n1[C@H]1CC[C@H](CC#N)CC1` [Example 23, (trans-4-{7-[(1R)-1-Hydroxyethyl]-8H-pyrrolo[2,3-d]thieno[3,2-b]pyridin-8-yl}cyclohexyl)acetonitrile], in assay [2], the JAK2/JAK1 was more than 10.

With `N#CC[C@H]1CC[C@H](n2c(CO)nc3cnc4ccsc4c32)CC1` [Example 17, {trans-4-[2-(Hydroxymethyl)-1H-imidazo[4,5-d]thieno[3,2-b]pyridin-1-yl]cyclohexyl}acetonitrile], the JAK2/JAK1 in assay [2] is more than 10.

Turning to `C[C@@H](O)c1nc2cnc3ccsc3c2n1[C@H]1CCCOC1` [Example 1, (1R)-1-{1-[(3S)-Tetrahydro-2H-pyran-3-yl]-1H-imidazo[4,5-d]thieno[3,2-b]pyridin-2-yl}ethanol], the JAK2/JAK1 in assay [2] is more than 3.

For `CCC(=O)NC[C@H]1CC[C@H](n2c(CC#N)nc3cnc4ccsc4c32)CC1` [Example 89, N-({trans-4-[2-(Cyanomethyl)-1H-imidazo[4,5-d]thieno[3,2-b]pyridin-1-yl]cyclohexyl}methyl)propanamide], the JAK2/JAK1 in assay [2] is recorded as more than 10.

Consider `C[C@@H](O)c1nc2cnc3ccsc3c2n1[C@H]1CCC(CO)OC1` (stereo partly drawn) [Example 19, (1R)-1-{1-[(3S)-6-(Hydroxymethyl)tetrahydro-2H-pyran-3-yl]-1H-imidazo[4,5-d]thieno[3,2-b]pyridin-2-yl}ethanol], for which the JAK2/JAK1 in assay [2] is reported as more than 10.

Regarding `C[C@@H](O)c1nc2cnc3ccsc3c2n1C1CCCC(CCC#N)C1` (stereo partly drawn) [Example 32, 3-(3-{2-[(1R)-1-Hydroxyethyl]-1H-imidazo[4,5-d]thieno[3,2-b]pyridin-1-yl}cyclohexyl)propanenitrile], the JAK2/JAK1 in assay [2] is on record as more than 10.

For `CC(C)c1nc2cnc3ccsc3c2n1[C@H]1CC[C@H](CC#N)OC1` [Example 42, [(2R,5S)-5-(2-Isopropyl-1H-imidazo[4,5-d]thieno[3,2-b]pyridin-1-yl)tetrahydro-2H-pyran-2-yl]acetonitrile], the JAK2/JAK1 in assay [2] is recorded as more than 10.

Take `C[C@@H](O)c1nc2cnc3ccsc3c2n1[C@H]1CC[C@H](CC#N)[C@H](O)C1` (single isomer, unassigned) [36 (first peak)]: the IC50 was not above 0.1 µM in assay [1] and more than 2 µM in assay [3]. Also, in assay [2], the JAK2/JAK1 is recorded as more than 10.

`C[C@@H](O)c1nc2cnc3ccsc3c2n1[C@H]1CCN(CCCCC#N)C1` [Example 66, 5-((3S)-3-{2-[(1R)-1-Hydroxyethyl]-1H-imidazo[4,5-d]thieno[3,2-b]pyridin-1-yl}pyrrolidin-1-yl)pentanenitrile]: the JAK2/JAK1 in assay [2] is more than 10.

Turning to `C[C@@H](O)c1nc2cnc3ccsc3c2n1[C@H]1CCCN(C(=O)CCc2ccccc2)C1` [Example 57], in assay [2], the JAK2/JAK1 is reported as more than 10.

Turning to `CCCOC(=O)NC[C@H]1CC[C@H](n2c([C@@H](C)O)nc3cnc4ccsc4c32)CC1` [Example 83, Propyl [(trans-4-{2-[(1R)-1-hydroxyethyl]-1H-imidazo[4,5-d]thieno[3,2-b]pyridin-1-yl}cyclohexyl)methyl]carbamate], the JAK2/JAK1 in assay [2] is recorded as more than 10.

`Cc1nc2cnc3ccsc3n2c1-c1ccc(CC#N)cc1` [Example 33, [4-(7-Methylimidazo[1,2-a]thieno[3,2-e]pyrazin-8-yl)phenyl]acetonitrile]: in assay [2], the JAK2/JAK1 is on record as more than 7.

Turning to `C[C@@H](O)c1nc2cnc3ccsc3c2n1[C@H]1CC[C@H](CO)CC1` [Example 11, (1R)-1-{1-[trans-4-(Hydroxymethyl)cyclohexyl]-1H-imidazo[4,5-d]thieno[3,2-b]pyridin-2-yl}ethanol], the JAK2/JAK1 in assay [2] is recorded as more than 10.

As for `C[C@@H](O)c1nc2cnc3ccsc3c2n1[C@H]1CCCN(C(=O)CC#N)C1.O=C(O)C(F)(F)F` [Example 51, 3-((3S)-3-{2-[(1R)-1-Hydroxyethyl]-1H-imidazo[4,5-d]thieno[3,2-b]pyridin-1-yl}piperidin-1-yl)-3-oxopropanenitrile trifluoroacetate], in assay [2], the JAK2/JAK1 was more than 10.

With `C[C@@H](O)c1nc2cnc3ccsc3c2n1[C@H]1CCCN(C(=O)CCCC#N)C1` [Example 59, 5-((3S)-3-{2-[(1R)-1-Hydroxyethyl]-1H-imidazo[4,5-d]thieno[3,2-b]pyridin-1-yl}piperidin-1-yl)-5-oxopentanenitrile], the JAK2/JAK1 in assay [2] is listed as more than 10.

On to `C[C@@H](O)c1nc2cnc3ccsc3c2n1C1CCC(NCCC#N)CC1` (single isomer, unassigned) [30 (first peak)], for which the JAK2/JAK1 in assay [2] was more than 2.
